Several values for one entry are separate records, joined by “and”; a condition that tells them apart may be missing. Identical values can stand only once.
Details: Liquid, Closed cell (Static) method

OCCO [1,2-ethanediol]
Details	vapor or sublimation pressure [kPa]
307.7 K	0.028
312.6 K	0.041
316.5 K	0.055
318.8 K	0.061
322.1 K	0.077
326.1 K	0.107
328.2 K	0.124
334.5 K	0.196
335.2 K	0.201
340.2 K	0.278
347.9 K	0.454
359.2 K	0.9
367.9 K	1.483
373.4 K	1.95
384.5 K	3.467

O=CCO [2-hydroxyacetaldehyde]
Details	vapor or sublimation pressure [kPa]
295.85 K	0.0037
305.1 K	0.009
305.51 K	0.0096
319.5 K	0.0335
319.84 K	0.0335
322.38 K	0.0368
323.64 K	0.0458
327.73 K	0.062
333.04 K	0.0984
339.32 K	0.153
340.91 K	0.17
341.95 K	0.182
342.82 K	0.198
346.83 K	0.253
355.98 K	0.486

CC(=O)CO [acetol]
Details	vapor or sublimation pressure
273.22 K	0.127 kPa
275.48 K	0.136 kPa
277.78 K	0.162 kPa
278.55 K	0.167 kPa and 0.172 kPa
280.9 K	0.201 kPa
281.69 K	0.205 kPa and 0.21 kPa
289.86 K	0.356 kPa
290.7 K	0.363 kPa and 0.36 kPa
293.26 K	0.431 kPa
295.86 K	0.516 kPa and 0.495 kPa
296.74 K	0.531 kPa
300.3 K	0.617 kPa
301.2 K	0.642 kPa
302.11 K	0.717 kPa
303.03 K	0.746 kPa
303.95 K	0.817 kPa

Reference: the NIST ThermoML archive (doi:10.1021/je9004905)
